Patent publication US9163256B2, “Mutant receptors and their use in a nuclear receptor-based inducible gene expression system” (priority 2004, dated 2015)
Where two headings read alike, the source gives them in different places.

Key:
Assay in all cases: cell-based
CfEcR-DEF mutant L132M = CfEcR-DEF mutant L132M (Choristoneura fumiferana, UniProt O77255, L415M); format: cell-based; settings: for Emax: NIH3T3, 40 h, read-out: Rel Max FI, mutant L132M
Experimental: (§1) This construct was prepared in the same way as in switch 1.1 above except wild-type CfEcR-DEF was replaced with mutant CfEcR-DEF comprising a ligand binding domain comprising a substitution mutation selected from Table 1 below.
(§2) DNAs were transfected into mouse NIH3T3 cells (ATCC) as follows. Standard methods for culture and maintenance of the cells were followed. Cells were harvested and plated 96-well plates at 2,500 cells per well, in 50 μL of growth medium containing 10% fetal bovine serum (FBS). Twenty-four hours later, the cells were treated with 35 μL of serum-free growth medium containing either dimethylsulfoxide (DMSO; control) or a DMSO solution of ligand. The cells were then transfected using Superfect (Qiagen Inc.) transfection reagent. For each well, 0.625 μL of Superfect was mixed with 14.2 μL of serum-free growth medium. 0.16 μg of reporter construct and 0.04 μg of each receptor construct were added to the transfection reagent mix. The contents of the transfection mix were mixed in a vortex mixer and let stand at room temperature for 30 minutes. At the end of incubation, 15 μL of transfection mix was added to the cells. The cells were maintained at 37° C. and 5% CO2 for 48 hours in 5% FBS.
(§3) Reporter Assays: Cells were harvested 40 hours after adding ligands. 125 μL of passive lysis buffer (part of Dual-Luciferase reporter assay system from Promega Corporation) were added to each well of the […] plate. The plates were placed on a rotary shaker for 15 minutes. Twenty μL of lysate were assayed. Luciferase activity was measured using Dual-Luciferase reporter assay system from Promega Corporation following the manufacturer's instructions. Fold induction (FI) activities were calculated by dividing relative light units (“RLU”) in ligand treated cells with RLU in DMSO treated cells (untreated control).

CfEcR-DEF mutant F48W = CfEcR-DEF mutant F48W (Choristoneura fumiferana, UniProt O77255, F331W)
CfEcR-DEF mutant F48W, sequence (P28702 299-449): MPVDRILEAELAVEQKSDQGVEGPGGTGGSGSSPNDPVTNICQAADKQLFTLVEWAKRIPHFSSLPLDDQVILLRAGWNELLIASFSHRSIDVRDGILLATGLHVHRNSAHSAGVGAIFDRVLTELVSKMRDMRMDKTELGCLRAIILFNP
CfEcR-DEF mutant F48W, sequence (O77255 entry or part of it F331W): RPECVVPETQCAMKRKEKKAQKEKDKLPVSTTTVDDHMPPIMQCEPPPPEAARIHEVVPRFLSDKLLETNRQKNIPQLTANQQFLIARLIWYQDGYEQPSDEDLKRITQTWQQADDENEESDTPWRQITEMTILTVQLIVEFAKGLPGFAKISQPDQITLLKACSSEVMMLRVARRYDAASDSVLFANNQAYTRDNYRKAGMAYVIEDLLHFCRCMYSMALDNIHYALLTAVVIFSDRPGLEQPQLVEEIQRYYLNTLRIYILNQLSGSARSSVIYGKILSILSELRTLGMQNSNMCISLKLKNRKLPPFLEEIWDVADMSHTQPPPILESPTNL
Experimental: as §1, §2, §3

CfEcR-DEF mutant W238E = CfEcR-DEF mutant W238E (Choristoneura fumiferana, UniProt O77255, W521E)
CfEcR-DEF mutant W238E, sequence (P28702 299-449): as the sequence (P28702 299-449) above
CfEcR-DEF mutant W238E, sequence (O77255 entry or part of it W521E): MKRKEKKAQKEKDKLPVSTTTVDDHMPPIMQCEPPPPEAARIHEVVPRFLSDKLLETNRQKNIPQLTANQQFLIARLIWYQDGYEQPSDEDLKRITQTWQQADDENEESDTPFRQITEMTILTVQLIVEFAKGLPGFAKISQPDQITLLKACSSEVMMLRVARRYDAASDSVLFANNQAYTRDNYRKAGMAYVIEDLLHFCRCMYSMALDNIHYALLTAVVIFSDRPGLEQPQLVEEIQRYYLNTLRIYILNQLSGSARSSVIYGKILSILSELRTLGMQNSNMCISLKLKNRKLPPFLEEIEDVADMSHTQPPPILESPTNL
Experimental: as §1, §2, §3

CfEcR-DEF mutant V128F = CfEcR-DEF mutant V128F (Choristoneura fumiferana, UniProt O77255, V411F)
CfEcR-DEF mutant V128F, sequence (P28702 299-449): as the sequence (P28702 299-449) above
CfEcR-DEF mutant V128F, sequence (O77255 entry or part of it V411F): as the sequence (O77255 entry or part of it W521E) above, with V193F, E303W counted along it
Experimental: as §1, §2, §3

CfEcR-DEF mutant T52P = CfEcR-DEF mutant T52P (Choristoneura fumiferana, UniProt O77255, T335P)
CfEcR-DEF mutant T52P, sequence (P28702 298-449): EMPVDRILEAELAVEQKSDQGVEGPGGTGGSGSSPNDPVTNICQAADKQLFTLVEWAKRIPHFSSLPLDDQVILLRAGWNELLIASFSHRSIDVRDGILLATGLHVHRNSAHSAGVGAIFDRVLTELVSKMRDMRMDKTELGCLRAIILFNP
CfEcR-DEF mutant T52P, sequence (O77255 entry or part of it T335P): as the sequence (O77255 entry or part of it F331W) above, with W125F, T129P counted along it
Experimental: as §1, §2, §3

CfEcR-DEF mutant F109M = CfEcR-DEF mutant F109M (Choristoneura fumiferana, UniProt O77255, F392M)
CfEcR-DEF mutant F109M, sequence (O77255 entry or part of it F392M): as the sequence (O77255 entry or part of it F331W) above, with W125F, F186M counted along it
CfEcR-DEF mutant F109M, sequence (P28702 299-449, further chain): as the sequence (P28702 299-449) above
Experimental: as §1, §2, §3

CfEcR-DEF mutant V96E = CfEcR-DEF mutant V96E (Choristoneura fumiferana, UniProt O77255, V379E)
CfEcR-DEF mutant V96E, sequence (O77255 entry or part of it V379E): as the sequence (O77255 entry or part of it W521E) above, with V161E, E303W counted along it
CfEcR-DEF mutant V96E, sequence (P28702 299-449, further chain): as the sequence (P28702 299-449) above
Experimental: as §1, §2, §3

CfEcR-DEF mutant Y120M = CfEcR-DEF mutant Y120M (Choristoneura fumiferana, UniProt O77255, Y403M)
CfEcR-DEF mutant Y120M, sequence (O77255 entry or part of it Y403M): as the sequence (O77255 entry or part of it W521E) above, with Y185M, E303W counted along it
CfEcR-DEF mutant Y120M, sequence (P28702 299-449, further chain): as the sequence (P28702 299-449) above
Experimental: as §1, §2, §3

CfEcR-DEF mutant F48Y = CfEcR-DEF mutant F48Y (Choristoneura fumiferana, UniProt O77255, F331Y)
CfEcR-DEF mutant F48Y, sequence (O77255 entry or part of it F331Y): as the sequence (O77255 entry or part of it F331W) above, with W125Y counted along it
CfEcR-DEF mutant F48Y, sequence (P28702 299-449, further chain): as the sequence (P28702 299-449) above
Experimental: as §1, §2, §3

[1] = NIH3T3, 40 h, read-out: Rel Max FI

CfEcR-DEF mutant L132M, sequence (O77255 entry or part of it L415M): as the sequence (O77255 entry or part of it F331W) above, with W125F, L209M counted along it
CfEcR-DEF mutant L132M, sequence (P28702 298-449, further chain): as the sequence (P28702 298-449) above

With `CC(C)(O)CC[C@@H](O)[C@](C)(O)[C@H]1CC[C@@]2(O)C3=CC(=O)[C@@H]4C[C@@H](O)[C@@H](O)C[C@]4(C)[C@H]3CC[C@]12C` [20E, 20-hydroxyecdysone] as the compound, how does the EC50 (CfEcR-DEF mutant L132M; mutant L132M) read?
The EC50 was > 33 µM.

And the “Rel Max FI” value (CfEcR-DEF mutant L132M; mutant L132M)?
The value was 0.01.

What about the “Rel Max FI” value (CfEcR-DEF mutant L132M; mutant L132M, relative to max fold induction of GS-E ligand) of the same compound?
Its value is 0.

What about the EC50 (CfEcR-DEF mutant F48W; mutant F48W, read-out: EC50) of the same compound?
The EC50 was > 33 µM.

And the “Rel Max FI” value (CfEcR-DEF mutant F48W; mutant F48W, relative to max fold induction of GS-E ligand)?
Its value is 0.

And the “Rel Max FI” value (CfEcR-DEF mutant W238E; mutant W238E)?
Its value is 0.

And the EC50 (CfEcR-DEF mutant W238E; mutant W238E, read-out: EC50)?
Its EC50 is > 33 µM.

And the “Rel Max FI” value (CfEcR-DEF mutant V128F; mutant V128F)?
Its value is 0.02.

What about the EC50 (CfEcR-DEF mutant V128F; mutant V128F, read-out: EC50) of the same compound?
The EC50 was ~10 µM.

And the “Rel Max FI” value (CfEcR-DEF mutant T52P; mutant T52P)?
Its value is 0.02.

What about the EC50 (CfEcR-DEF mutant T52P; mutant T52P, read-out: EC50) of the same compound?
The EC50 was > 33 µM.

And the EC50 (CfEcR-DEF mutant F109M; mutant F109M, read-out: EC50)?
The EC50 was > 33 µM.

What about the “Rel Max FI” value (CfEcR-DEF mutant F109M; mutant F109M, relative to max fold induction of GS-E ligand) of the same compound?
The value was 0.

What about the “Rel Max FI” value (CfEcR-DEF mutant V96E; mutant V96E) of the same compound?
Its value is 0.

What about the EC50 (CfEcR-DEF mutant V96E; mutant V96E, read-out: EC50) of the same compound?
The EC50 was > 33 µM.

What about the “Rel Max FI” value (CfEcR-DEF mutant Y120M; mutant Y120M) of the same compound?
Its value is 0.

And the EC50 (CfEcR-DEF mutant Y120M; mutant Y120M, read-out: EC50)?
Its EC50 is > 33 µM.

And the EC50 (CfEcR-DEF mutant F48Y; mutant F48Y, read-out: EC50)?
The EC50 was > 33 µM.

What about the “Rel Max FI” value (CfEcR-DEF mutant F48Y; mutant F48Y, relative to max fold induction of GS-E ligand) of the same compound?
Its value is 0.

Which results are given for `Cc1cc(C)cc(C(=O)N(NC(=O)c2cccc(C(C)C)c2C)C(C)(C)C)c1` [RG-102362, 3,5-Dimethyl-benzoic acid N-tert-butyl-N′-(3-isopropyl-2-methyl-benzoyl)-hydrazide]?
Emax (CfEcR-DEF mutant L132M): 1%; Emax (CfEcR-DEF mutant L132M; relative to max fold induction of GS-E ligand): 66%; EC50 (CfEcR-DEF mutant F48W): 0.77 µM; Emax (CfEcR-DEF mutant F48W; [1]): 51%; EC50 (CfEcR-DEF mutant W238E): 3.45 µM; Emax (CfEcR-DEF mutant W238E; [1]): 45%; EC50 (CfEcR-DEF mutant V128F; EC50, mutant V128F): > 33 µM; Emax (CfEcR-DEF mutant V128F; [1]): 234%; EC50 (CfEcR-DEF mutant T52P): ~6 µM; Emax (CfEcR-DEF mutant T52P; [1]): 11%; EC50 (CfEcR-DEF mutant F109M): 0.82 µM; Emax (CfEcR-DEF mutant F109M; [1]): 60%; EC50 (CfEcR-DEF mutant V96E): 1.86 µM; Emax (CfEcR-DEF mutant V96E; [1]): 48%; EC50 (CfEcR-DEF mutant Y120M): ~10 µM; Emax (CfEcR-DEF mutant Y120M; [1]): 13%; EC50 (CfEcR-DEF mutant F48Y): 0.59 µM; Emax (CfEcR-DEF mutant F48Y; [1]): 48%
